From paper PMC7749390, “Neuroprotective activity of Ulmus pumila L. in Alzheimer's disease in rats; role of neurotrophic factors” (Heliyon, 2020)
Values after ≈ are worked out from the molar mass of the structure shown. Like-named read-outs stand apart in the source and are kept apart here.

Tests used:
Electric-eel AChE = molecular target: T1, Electric-eel AChE (Electrophorus electricus, UniProt O42275); assay: biochemical; settings: for inhibition at 6.25 µM: read-out: % Inhibition 6.25μM; for inhibition at 12.5 µM: read-out: % Inhibition 12.5μM; for inhibition at 25 µM: read-out: % Inhibition 25μM; for inhibition at 50 µM: read-out: % Inhibition 50μM
T1 construct: purchased Sigma
Method: The reaction mixture contained 150 μL of (100 mM) sodium phosphate buffer (pH 8.0), 10 μL of 5,5-Dithiobis-(2-nitrobenzoic acid) (DTNB, Sigma), 10 μL of test-extract solution and 20 μL of acetyl cholinesterase solution (Electric-eel AChE- Sigma) were mixed and incubated for 15 min (37 °C) followed by the addition of 10ml of acetylthiocholine (Sigma) to initiate the reaction. Hydrolysis of acetylthiocholine was monitored by the formation of yellow 5-thio-2- nitrobenzoate anion measured by UV- Vis Shimadzu spectrophotometer-USA at a wavelength of 412 nm (15 min).
Statistical analysis: reactions were carried out in triplicates and the data were expressed as mean ± SEM. The inhibitory concentration (IC50) of the total extract and each compound, was graphically evaluated by a non-linear regression method using Graph Pad Prism (Ver. 5.0) software.

[1] = DPPH radical scavenging assay
[2] = Superoxide anion scavenging assay
[3] = table, mean ± SEM, n = 3, read-out: IC50

T1 sequence (O42275 24-633): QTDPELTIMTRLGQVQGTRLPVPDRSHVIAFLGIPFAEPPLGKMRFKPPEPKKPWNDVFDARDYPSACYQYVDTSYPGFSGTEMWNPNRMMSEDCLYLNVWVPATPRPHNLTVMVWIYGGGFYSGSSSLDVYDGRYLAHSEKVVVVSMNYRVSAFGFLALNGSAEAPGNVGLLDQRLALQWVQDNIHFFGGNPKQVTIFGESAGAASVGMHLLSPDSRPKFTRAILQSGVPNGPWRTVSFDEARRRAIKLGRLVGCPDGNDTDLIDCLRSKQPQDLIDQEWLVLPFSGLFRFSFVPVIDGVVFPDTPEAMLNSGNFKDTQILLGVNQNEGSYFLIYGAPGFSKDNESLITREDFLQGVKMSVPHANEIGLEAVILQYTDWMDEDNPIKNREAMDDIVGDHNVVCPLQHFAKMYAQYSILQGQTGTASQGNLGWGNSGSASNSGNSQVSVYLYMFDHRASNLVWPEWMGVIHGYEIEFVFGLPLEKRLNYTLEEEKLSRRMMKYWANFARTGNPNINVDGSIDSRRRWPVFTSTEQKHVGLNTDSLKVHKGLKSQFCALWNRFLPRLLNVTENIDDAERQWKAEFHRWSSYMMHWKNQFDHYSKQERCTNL

O=c1c(O[C@@H]2O[C@H](CO)[C@@H](O)[C@H](O)[C@H]2O)c(-c2ccc(O)cc2)oc2cc(O)cc(O)c12 [Compound 3, kaempferol 3-o-β-D-glucoside]
IC50 (Electric-eel AChE): 29.03 ± 0.0155 µM | inhibition at 6.25 µM (Electric-eel AChE): 3.7 ± 0.6% | inhibition at 12.5 µM (Electric-eel AChE): 14.6 ± 1.2% | inhibition at 25 µM (Electric-eel AChE): 39.4 ± 0.8% | inhibition at 50 µM (Electric-eel AChE): 79.3 ± 0.8%

CC1OC(OCC2OC(Oc3c(-c4ccc(O)cc4)oc4cc(O)cc(O)c4c3=O)C(O)C(O)C2O)C(O)C(O)C1O (stereo not shown) [Compound 8, Kaempferol 3-o-robinobioside]
inhibition at 6.25 µM (Electric-eel AChE; 6.25μM, mean ± SEM, n = 3): 1.5 ± 0.8% | inhibition at 12.5 µM (Electric-eel AChE; 12.5μM, mean ± SEM, n = 3): 4.4 ± 0.9% | inhibition at 25 µM (Electric-eel AChE; 25μM, mean ± SEM, n = 3): 19.9 ± 1.8% | inhibition at 50 µM (Electric-eel AChE; 50μM, mean ± SEM, n = 3): 59.3 ± 2.9% | IC50 (Electric-eel AChE; [3]): 43.13 ± 0.13 µM

O=C1O[C@H]([C@@H](O)CO)C(O)=C1O [ascorbic acid]
IC50, free radical scavenging activity (DPPH assay) [1]: 5.6 µg/mL (≈ 31.8 µM)

O=c1c(O)c(-c2ccc(O)c(O)c2)oc2cc(O)cc(O)c12 [quercetin]
IC50, superoxide anion radical inhibitory activity [2]: 45.3 ± 1.6 µg/mL (≈ 150 µM)

O=c1c(O[C@@H]2O[C@H](CO)[C@@H](O)[C@H](O)[C@H]2O)c(-c2ccc(O)c(O)c2)oc2cc(O)cc(O)c12 [Compound 5, quercetin-3-O-β-D-gulucopyranoside]
IC50 (Electric-eel AChE): 31.72 ± 0.017 µM | inhibition at 6.25 µM (Electric-eel AChE): 3.9 ± 1% | inhibition at 12.5 µM (Electric-eel AChE): 14.4 ± 0.9% | inhibition at 25 µM (Electric-eel AChE): 36.3 ± 1.6% | inhibition at 50 µM (Electric-eel AChE): 72.8 ± 2.6%

CN(CCCCCCN(C)C(=O)Oc1ccc[n+](C)c1)C(=O)Oc1ccc[n+](C)c1 [distigmine bromide, reference compound]
IC50 (Electric-eel AChE): 26.83 ± 0.02 µM

Oc1cc(O)c2c(c1)OC(c1ccc(O)c(O)c1)C(O)C2 (single isomer, unassigned; (+)) [Compound 1, (+)-catechin]
inhibition at 6.25 µM (Electric-eel AChE; 6.25μM, mean ± SEM, n = 3): 4.6 ± 1% | inhibition at 12.5 µM (Electric-eel AChE; 12.5μM, mean ± SEM, n = 3): 16.2 ± 2.4% | inhibition at 25 µM (Electric-eel AChE; 25μM, mean ± SEM, n = 3): 32.5 ± 2.5% | inhibition at 50 µM (Electric-eel AChE; 50μM, mean ± SEM, n = 3): 70.3 ± 1.2% | IC50 (Electric-eel AChE; [3]): 33.61 ± 0.0295 µM

Oc1cc(O)c2c(c1)O[C@H](c1ccc(O)c(O)c1)[C@H](O)C2 [Compound 2, (-)-epicatechin]
inhibition at 6.25 µM (Electric-eel AChE; 6.25μM, mean ± SEM, n = 3): 4.7 ± 0.7% | inhibition at 12.5 µM (Electric-eel AChE; 12.5μM, mean ± SEM, n = 3): 19.6 ± 2.6% | inhibition at 25 µM (Electric-eel AChE; 25μM, mean ± SEM, n = 3): 33.7 ± 1.2% | inhibition at 50 µM (Electric-eel AChE; 50μM, mean ± SEM, n = 3): 73.6 ± 1.8% | IC50 (Electric-eel AChE; [3]): 31.62 ± 0.04 µM
